Measured values reported in PubChem BioAssay (NCI).
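In this assay, cells in 96-well plates receive the compound at five concentrations for 48 hours. Endpoints are linearly interpolated between the surrounding concentrations. Abbreviation: GI50, concentration required for 50% inhibition of growth. The concentration for full growth arrest is given as TGI.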

Columns and labels:
Experiment in all cases: NCI tumour cell line growth inhibition, 48 h
[1] = tested on: SK-MEL-28 melanoma
[2] = tested on: RPMI-8226 leukemia
[3] = tested on: DLD-1 colon
[4] = tested on: KM20L2 colon
[5] = tested on: HOP-92 NSCLC
[6] = tested on: SF-268 CNS
[7] = tested on: HOP-18 NSCLC
[8] = tested on: TK-10 renal
[9] = tested on: ACHN renal
[10] = tested on: HCT-116 colon
[11] = tested on: EKVX NSCLC
[12] = tested on: SK-MEL-2 melanoma
[13] = tested on: UACC-257 melanoma
[14] = tested on: 786-0 renal
[15] = tested on: HCC-2998 colon
[16] = tested on: SR leukemia
[17] = tested on: HCT-15 colon
[18] = tested on: SK-OV-3 ovarian
[19] = tested on: SNB-19 CNS
[20] = tested on: NCI-H23 lung
[21] = tested on: UO-31 renal
[22] = tested on: UACC-62 melanoma
[23] = tested on: HL-60(TB) leukemia
[24] = tested on: SN12C renal
[25] = tested on: LOX IMVI melanoma
[26] = tested on: M19-MEL melanoma
[27] = tested on: CAKI-1 renal
[28] = tested on: U251 CNS
[29] = tested on: MALME-3M melanoma
[30] = tested on: CCRF-CEM leukemia
[31] = tested on: HT29 colon
[32] = tested on: LXFL 529 NSCLC
[33] = tested on: NCI-H460 lung
[34] = tested on: HOP-62 NSCLC
[35] = tested on: OVCAR-8 ovarian
[36] = tested on: OVCAR-4 ovarian
[37] = tested on: IGROV1 ovarian
[38] = tested on: DMS 114 small cell lung
[39] = tested on: KM12 colon
[40] = tested on: MOLT-4 leukemia
[41] = tested on: NCI-H226 lung
[42] = tested on: SK-MEL-5 melanoma
[43] = tested on: DMS 273 small cell lung
[44] = tested on: OVCAR-5 ovarian
[45] = tested on: M14 melanoma
[46] = tested on: K-562 leukemia
[47] = tested on: SNB-78 CNS
[48] = tested on: OVCAR-3 ovarian
[49] = tested on: COLO 205 colon
[50] = tested on: SW-620 colon
[51] = tested on: A498 renal
[52] = tested on: SF-539 CNS
[53] = tested on: SNB-75 CNS
[54] = tested on: NCI-H522 lung
[55] = tested on: A549 NSCLC
[56] = tested on: SF-295 CNS
[57] = tested on: RXF 393 renal

Q: With `Cn1cc2ccccc2c1-c1nc(F)nc(Oc2ccc3c(c2)CC[C@@H]2C3CC[C@@]3(C)C2CC[C@@H]3O)n1` (stereo partly drawn) as the compound, how does the TGI [1] read?
A: Its TGI is 27.1 µM.

Q: What about the TGI [2] of the same compound?
A: Its TGI is 21.7 µM.

Q: And the TGI [3]?
A: Its TGI is 14.6 µM.

Q: What about the TGI [4] of the same compound?
A: The TGI was 36.6 µM.

Q: And the TGI [5]?
A: Its TGI is 14.7 µM.

Q: And the TGI [6]?
A: Its TGI is 28.7 µM.

Q: And the TGI [7]?
A: Its TGI is 34.2 µM.

Q: What about the TGI [8] of the same compound?
A: Its TGI is 18.3 µM.

Q: What about the TGI [9] of the same compound?
A: The TGI was 35.4 µM.

Q: And the TGI [10]?
A: The TGI was 36 µM.

Q: And the TGI [11]?
A: The TGI was 37.3 µM.

Q: What about the TGI [12] of the same compound?
A: The TGI was 10.2 µM.

Q: What about the TGI [13] of the same compound?
A: Its TGI is 45.8 µM.

Q: And the TGI [14]?
A: Its TGI is 26.4 µM.

Q: And the TGI [15]?
A: Its TGI is 33.5 µM.

Q: And the TGI [16]?
A: Its TGI is 21 µM.

Q: What about the TGI [17] of the same compound?
A: The TGI was 12.2 µM.

Q: What about the TGI [18] of the same compound?
A: Its TGI is 43.7 µM.

Q: What about the TGI [19] of the same compound?
A: Its TGI is 35.5 µM.

Q: And the TGI [20]?
A: Its TGI is 27.6 µM.

Q: What about the TGI [21] of the same compound?
A: Its TGI is 50.9 µM.

Q: And the TGI [22]?
A: The TGI was 32.7 µM.

Q: What about the TGI [23] of the same compound?
A: Its TGI is 21 µM.

Q: What about the TGI [24] of the same compound?
A: The TGI was 28.1 µM.

Q: And the TGI [25]?
A: The TGI was 32.6 µM.

Q: What about the TGI [26] of the same compound?
A: Its TGI is over 56.5 µM.

Q: And the TGI [27]?
A: The TGI was 16.3 µM.

Q: What about the TGI [28] of the same compound?
A: Its TGI is 13.2 µM.

Q: And the TGI [29]?
A: Its TGI is 35.5 µM.

Q: What about the TGI [30] of the same compound?
A: The TGI was over 100 µM.

Q: And the TGI [31]?
A: Its TGI is 35.8 µM.

Q: And the TGI [32]?
A: The TGI was 8.89 µM.

Q: What about the TGI [33] of the same compound?
A: The TGI was 38.1 µM.

Q: And the TGI [34]?
A: Its TGI is 27.9 µM.

Q: And the TGI [35]?
A: Its TGI is 19.7 µM.

Q: And the TGI [36]?
A: The TGI was 16.4 µM.

Q: And the TGI [37]?
A: The TGI was 15.3 µM.

Q: What about the GI50 [38] of the same compound?
A: The GI50 was 6.42 µM.

Q: And the TGI [38]?
A: Its TGI is 22 µM.

Q: What about the TGI [39] of the same compound?
A: The TGI was 19.5 µM.

Q: And the TGI [40]?
A: The TGI was over 56.9 µM.

Q: And the TGI [41]?
A: Its TGI is 38.4 µM.

Q: And the TGI [42]?
A: The TGI was 35.6 µM.

Q: And the TGI [43]?
A: The TGI was over 58.5 µM.

Q: What about the TGI [44] of the same compound?
A: Its TGI is 33.9 µM.

Q: And the TGI [45]?
A: The TGI was 20.4 µM.

Q: What about the TGI [46] of the same compound?
A: The TGI was over 87 µM.

Q: And the TGI [47]?
A: Its TGI is over 61.4 µM.

Q: What about the TGI [48] of the same compound?
A: The TGI was 21.8 µM.

Q: What about the TGI [49] of the same compound?
A: Its TGI is 41.8 µM.

Q: And the TGI [50]?
A: The TGI was 17.6 µM.

Q: And the TGI [51]?
A: Its TGI is 36 µM.

Q: And the TGI [52]?
A: Its TGI is 29.1 µM.

Q: And the TGI [53]?
A: Its TGI is 39.2 µM.

Q: And the TGI [54]?
A: The TGI was 12.7 µM.

Q: And the TGI [55]?
A: The TGI was 54.4 µM.

Q: What about the TGI [56] of the same compound?
A: Its TGI is 63.5 µM.

Q: What does the source list for `O=C1C2=C(CCCC2)Nc2cccc3ncn1c23`?
A: TGI [1]: > 100 µM; TGI [2]: > 100 µM; TGI [3]: > 100 µM; TGI [4]: > 100 µM; TGI [5]: > 100 µM; TGI [6]: > 100 µM; TGI [7]: > 100 µM; TGI [8]: > 100 µM; TGI [9]: > 100 µM; TGI [10]: > 100 µM; TGI [11]: > 100 µM; TGI [12]: > 100 µM; TGI [13]: > 100 µM; TGI [14]: > 100 µM; TGI [15]: > 100 µM; TGI [16]: > 100 µM; TGI [17]: > 100 µM; TGI [18]: > 100 µM; TGI [19]: > 100 µM; TGI [20]: > 100 µM; TGI [21]: > 100 µM; TGI [22]: > 100 µM; TGI [23]: > 100 µM; TGI [24]: > 100 µM; TGI [25]: > 100 µM; TGI [26]: > 100 µM; TGI [28]: > 100 µM; TGI [29]: > 100 µM; TGI [30]: > 100 µM; TGI [32]: > 100 µM; TGI [33]: > 100 µM; TGI [34]: > 100 µM; TGI [35]: > 100 µM; TGI [38]: > 100 µM; TGI [39]: > 100 µM; TGI [40]: > 100 µM; TGI [42]: > 100 µM; TGI [43]: > 100 µM; TGI [44]: > 100 µM; TGI [45]: > 100 µM; TGI [46]: > 100 µM; TGI [47]: > 100 µM; TGI [48]: > 100 µM; TGI [49]: > 100 µM; TGI [50]: > 100 µM; TGI [51]: > 100 µM; TGI [52]: > 100 µM; TGI [54]: > 100 µM; TGI [55]: > 100 µM; TGI [57]: > 100 µM; TGI [56]: > 100 µM
